# Key:
# [1] = system: DU 145, hormone-independent human prostate cancer cells; assay: Proliferation assay, DU145; assay type: cell-based; details: DU-145, 96 h, 4 days incubation, crystal violet
# Description: (§1) Cultivated human tumor cells (MCF7, hormone-independent human breast cancer cells, related to ATCC HTB22; NCI-H460, human non-small-cell lung cancer cells, ATCC HTB-177, HCT 116, human colon cancer cells, ATCC CCL-247; DU 145, hormone-independent human prostate cancer cells, ATCC HTB-81; MaTu-MDR, hormone-independent, multiple pharmaceutical agent-resistant human breast cancer cells, EPO-GmbH, Berlin) were flattened out at a density of about 5000 cells/measuring point, depending on the growth rate of the respective cells, in a 96-well multititer plate in 200 μl of the corresponding growth medium. After 24 hours, the cells of one plate (zero-point plate) were colored with crystal violet (see below), while the medium of the other plates was replaced by fresh culture medium (200 μl), to which the test substances were added in various concentrations (0 μm, as well as in the range of 0.01-30 μm; the final concentration of the solvent dimethyl sulfoxide was 0.5%). The cells were incubated for 4 days in the presence of test substances. The cell proliferation was determined by coloring the cells with crystal violet: the cells were fixed by adding 20 μl/measuring point of an 11% glutaric aldehyde solution for 15 minutes at room temperature. After three washing cycles of the fixed cells with water, the plates were dried at room temperature. The cells were colored by adding 100 μl/measuring point of a 0.1% crystal violet solution (the pH was set at 3 by adding acetic acid). After three washing cycles of the colored cells with water, the plates were dried at room temperature. The dye was dissolved by adding 100 μl/measuring point of a 10% acetic acid solution. The extinction was determined by photometry at a wavelength of 595 nm. The change of cell growth, in percent, was calculated by normalization of the measured values to the extinction values of the zero-point plate (=0%) and the extinction of the untreated (0 μm) cells (=100%).
# [2] = biological target: T1, VEGF receptor tyrosine kinase-2 (Homo sapiens, UniProt P35968); assay: VEGF Receptor-2 Kinase Assay; assay type: biochemical; details: poly-(Glu4Tyr) substrate, 33P-ATP, 10 minutes at 22° C.; read-out: VEGF-R2 IC50
# T1 construct: GST; made in house; host or cells: baculovirus-infected insect cells (Sf9)
# Procedure: VEGF Receptor-2 Kinase Assay
# Recombinant VEGF receptor tyrosine kinase-2 was purified as a GST fusion protein from baculovirus-infected insect cells (Sf9). Poly-(Glu4Tyr), which was used as a kinase substrate, was purchased by the Sigma Company.
# VEGF receptor tyrosine kinase (90 ng/measuring point) was incubated for 10 minutes at 22° C. in the presence of various concentrations of test substances (0 μm, as well as within the range of 0.001-30 μm) in 30 μl of assay buffer [40 mmol of Tris/HCl, […], 10 mmol of MgCl2, 1 mmol of MnCl2, 3 μmol of Na ortho-vanadate, 1.0 mmol of dithiothreitol, 8 μmol of adenosine trisphosphate (ATP), 27 μg/measuring point of poly-(Glu4Tyr), 0.2 μCi/measuring point of 33P-gamma ATP, 1% dimethyl sulfoxide]. The reaction was stopped by adding EDTA solution (250 mmol, pH 7.0, 10 μl/measuring point).
# (§2) From each reaction batch, 10 μl was applied to P30 filter strips (Wallac Company), and non-incorporated 33P-ATP was removed by subjecting the filter strips to three washing cycles for 10 minutes each in 0.5% phosphoric acid. After the filter strips were dried for one hour at 70° C., the filter strips were covered with scintillator strips (MeltiLex™ A, Wallac Company) and baked for one hour at 90° C. The amount of incorporated 33P (substrate phosphorylation) was determined by scintillation measurement in a gamma-radiation measuring device (Wallac).
# CDK1/CycB = biological target: T2, CDK1/CycB (Homo sapiens, UniProt P06493); assay: CDK1/CycB Kinase Assay; assay type: biochemical; details: histone IIIS substrate, 33P-ATP, 15 minutes at 22° C.
# T2 construct: GST; purchased ProQinase GmbH, Freiburg; host or cells: baculovirus-infected insect cells (Sf9)
# Procedure: Recombinant CDK1- and CycB-GST-fusion proteins, purified from baculovirus-infected insect cells (Sf9), were purchased from ProQinase GmbH, Freiburg. Histone IIIS, used as a kinase substrate, is available commercially from the Sigma Company.
# The reaction was stopped by adding EDTA solution (250 mmol, pH 8.0, 14 μl/measuring point).
# as §2
# CDK2/CycE = biological target: T3, CDK2/CycE (Homo sapiens, UniProt P24941); assay: CDK2/CycE Kinase Assay; assay type: biochemical; details: histone IIIS substrate, 33P-ATP, 15 minutes at 22° C.
# T3 construct: GST; purchased ProQinase GmbH, Freiburg; host or cells: baculovirus-infected insect cells (Sf9)
# Procedure: Recombinant CDK2- and CycE-GST-fusion proteins, purified from baculovirus-infected insect cells (Sf9), were purchased by ProQinase GmbH, Freiburg. Histone IIIs, which was used as a kinase substrate, was purchased by the Sigma Company.
# CDK2/CycE (50 ng/measuring point) was incubated for 15 minutes at 22° C. in the presence of various concentrations of test substances (0 μm, as well as within the range of 0.01-100 μm) in assay buffer [50 mmol of tris/HCl, pH 8.0, 10 mmol of MgCl2, 0.1 mmol of Na ortho-vanadate, 1.0 mmol of dithiothreitol, 0.5 μm of adenosine triphosphate (ATP), 10 μg/measuring point of histone IIIS, 0.2 μCi/measuring point of ^33P-gamma ATP, 0.05% NP40, 12.5% dimethyl sulfoxide]. The reaction was stopped by adding EDTA solution (250 mmol, pH 8.0, 14 μl/measuring point).
# as §2, with “^33P-ATP” for “33P-ATP”, “^33P” for “33P”
# [3] = system: NCI-H460, human non-small-cell lung cancer cells; assay: Proliferation assay, H460; assay type: cell-based; details: NCI-H460, 96 h, 4 days incubation, crystal violet
# Description: as §1
# [4] = system: MCF7, hormone-independent human breast cancer cells; assay: Proliferation assay, MCF7; assay type: cell-based; details: MCF7, 96 h, 4 days incubation, crystal violet
# Description: as §1
# MaTu-ADR = assay: Proliferation assay, MaTu-ADR; assay type: cell-based; details: Homo sapiens, 96 h, MaTu-ADR cells, 4 days incubation, crystal violet
# Description: as §1
# T2 sequence (P06493 whole entry): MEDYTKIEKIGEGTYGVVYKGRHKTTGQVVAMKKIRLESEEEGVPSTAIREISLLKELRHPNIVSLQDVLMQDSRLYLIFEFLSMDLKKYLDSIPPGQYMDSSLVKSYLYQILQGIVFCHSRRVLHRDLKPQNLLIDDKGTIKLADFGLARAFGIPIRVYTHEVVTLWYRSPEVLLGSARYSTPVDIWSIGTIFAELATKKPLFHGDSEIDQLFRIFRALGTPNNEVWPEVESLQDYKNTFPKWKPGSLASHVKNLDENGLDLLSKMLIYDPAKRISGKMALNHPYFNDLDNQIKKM
# T2 sequence (P14635 whole entry partner): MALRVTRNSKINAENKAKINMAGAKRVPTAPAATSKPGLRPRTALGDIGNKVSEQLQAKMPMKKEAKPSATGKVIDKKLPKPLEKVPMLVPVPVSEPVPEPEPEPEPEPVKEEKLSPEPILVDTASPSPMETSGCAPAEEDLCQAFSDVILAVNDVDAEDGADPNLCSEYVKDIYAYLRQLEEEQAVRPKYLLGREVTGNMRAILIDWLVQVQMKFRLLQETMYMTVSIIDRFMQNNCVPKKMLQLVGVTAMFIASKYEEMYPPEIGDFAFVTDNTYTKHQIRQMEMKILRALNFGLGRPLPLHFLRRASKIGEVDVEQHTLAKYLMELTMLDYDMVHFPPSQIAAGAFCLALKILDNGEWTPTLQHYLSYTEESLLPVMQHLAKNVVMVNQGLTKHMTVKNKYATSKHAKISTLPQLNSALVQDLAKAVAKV
# T1 sequence (P35968 20-1356): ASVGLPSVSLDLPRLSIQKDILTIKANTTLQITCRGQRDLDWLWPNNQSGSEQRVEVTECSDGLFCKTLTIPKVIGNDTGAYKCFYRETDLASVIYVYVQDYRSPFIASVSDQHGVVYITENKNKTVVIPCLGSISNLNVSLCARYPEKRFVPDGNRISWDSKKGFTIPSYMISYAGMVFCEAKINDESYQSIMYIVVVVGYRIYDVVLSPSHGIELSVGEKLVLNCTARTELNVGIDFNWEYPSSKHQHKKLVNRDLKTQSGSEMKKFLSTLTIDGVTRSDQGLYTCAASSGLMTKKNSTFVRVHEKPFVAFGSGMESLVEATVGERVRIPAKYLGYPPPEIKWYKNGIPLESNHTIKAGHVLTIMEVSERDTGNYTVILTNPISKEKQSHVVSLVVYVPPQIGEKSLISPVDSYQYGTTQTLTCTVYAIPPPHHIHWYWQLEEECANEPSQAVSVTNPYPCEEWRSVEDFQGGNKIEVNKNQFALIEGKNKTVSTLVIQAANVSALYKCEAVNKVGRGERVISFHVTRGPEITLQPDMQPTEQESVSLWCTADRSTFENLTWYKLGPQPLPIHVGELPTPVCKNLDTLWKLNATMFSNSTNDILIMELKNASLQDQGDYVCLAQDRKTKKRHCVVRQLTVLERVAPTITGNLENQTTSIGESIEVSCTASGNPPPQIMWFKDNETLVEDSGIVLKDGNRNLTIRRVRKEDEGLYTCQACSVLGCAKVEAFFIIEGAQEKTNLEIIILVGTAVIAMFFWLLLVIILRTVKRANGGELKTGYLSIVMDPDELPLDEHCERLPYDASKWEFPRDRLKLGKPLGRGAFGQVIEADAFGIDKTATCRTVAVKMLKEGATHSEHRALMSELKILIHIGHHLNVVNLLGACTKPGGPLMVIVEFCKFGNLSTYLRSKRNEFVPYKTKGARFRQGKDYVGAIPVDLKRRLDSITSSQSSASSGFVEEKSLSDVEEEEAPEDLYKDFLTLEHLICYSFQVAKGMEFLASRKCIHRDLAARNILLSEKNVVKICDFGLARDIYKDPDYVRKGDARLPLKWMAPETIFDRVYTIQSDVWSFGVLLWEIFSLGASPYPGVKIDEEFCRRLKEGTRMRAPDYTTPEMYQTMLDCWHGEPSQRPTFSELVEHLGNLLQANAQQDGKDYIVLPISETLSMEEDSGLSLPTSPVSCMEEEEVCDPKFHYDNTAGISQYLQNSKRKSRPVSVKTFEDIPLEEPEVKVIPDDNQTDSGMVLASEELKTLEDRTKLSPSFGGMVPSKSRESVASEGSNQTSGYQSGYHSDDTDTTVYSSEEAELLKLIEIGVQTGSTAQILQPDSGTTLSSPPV
Structure (SMILES),IC50 [1],IC50 [2],IC50 (CDK1/CycB),IC50 (CDK2/CycE),IC50 [3],IC50 [4],IC50 (MaTu-ADR)
"C[C@@H](Nc1nc(Nc2ccc(S(=O)(=NS(=O)(=O)CC[Si](C)(C)C)C3CCCC3)cc2)ncc1Br)C(C)(C)O (mixture of isomers) [Example 1.10, (RS)-S-[4-({5-bromo-4-[(R)-(2-hydroxy-1,2-dimethylpropyl)amino]pyrimidin-2-yl}amino)phenyl]-S-cyclopentyl-N-[2-(trimethylsilyl)ethylsulfonyl]sulfoximide]",800 nM,910 nM,> 1000 nM,> 1000 nM,700 nM,500 nM,800 nM
"C[C@@H](Nc1nc(Nc2ccc(S(=O)(CCO)=NS(=O)(=O)CC[Si](C)(C)C)cc2)ncc1Br)C(C)(C)O (mixture of isomers) [Example 1.12, (RS)-S-[4-({5-bromo-4-[(R)-(2-hydroxy-1,2-dimethylpropyl)amino]pyrimidin-2-yl}amino)phenyl]-S-(2-hydroxyethyl)-N-[2-(trimethylsilyl)ethylsulfonyl]sulfoximide]",300 nM,160 nM,160 nM,49 nM,400 nM,200 nM,2800 nM
"C[C@@H](O)[C@@H](C)Nc1nc(Nc2ccc(S(=O)(CCO)=NS(=O)(=O)CC[Si](C)(C)C)cc2)ncc1Br (mixture of isomers) [Example 1.16, (RS)-S-[4-({5-Bromo-4-[(1R,2R)-(2-hydroxy-1-methyl-propyl)amino]pyrimidin-2-yl}amino)phenyl]-S-(2-hydroxyethyl)-N-[2-(trimethylsilyl)ethylsulfonyl]sulfoximide]",190 nM,130 nM,170 nM,130 nM,200 nM,180 nM,4000 nM
"C[C@@H](O)[C@@H](C)Oc1nc(Nc2ccc(S(=O)(CCO)=NS(=O)(=O)CC[Si](C)(C)C)cc2)ncc1Br (mixture of isomers) [Example 1.20, (RS)-S-[4-({5-bromo-4-[(1R,2R)-2-hydroxy-1-methyl-propoxy]pyrimidin-2-yl}amino)phenyl]-S-(2-hydroxyethyl)-N-[2-(trimethylsilyl)ethylsulfonyl]sulfoximide]",400 nM,820 nM,160 nM,54 nM,400 nM,200 nM,2100 nM
"CCOC(=O)N=S(C)(=O)c1ccc(Nc2ncc(Br)c(N[C@H](C)C(C)(C)O)n2)cc1 (mixture of isomers) [Example 1.31, (RS)-S-[4-({5-bromo-4-[(R)-(2-hydroxy-1,2-dimethylpropyl)amino]pyrimidin-2-yl}amino)phenyl]-N-(ethoxycarbonyl)-S-methyl sulfoximide]",300 nM,140 nM,27 nM,9 nM,180 nM,200 nM,700 nM
"CCOC(=O)N=S(C)(=O)c1ccc(Nc2ncc(Br)c(N[C@H](C)[C@@H](C)O)n2)cc1 (mixture of isomers) [Example 1.32, (RS)-S-[4-({5-bromo-4-[(1R,2R)-(2-hydroxy-1-methylpropyl)amino]pyrimidin-2-yl}amino)phenyl]-N-(ethoxycarbonyl)-S-methyl sulfoximide]",300 nM,56 nM,16 nM,12 nM,180 nM,190 nM,600 nM
"CCOC(=O)N=S(=O)(CC)c1ccc(Nc2ncc(Br)c(N[C@H](C)[C@@H](C)O)n2)cc1 (mixture of isomers) [Example 1.36, (RS)-S-[4-({5-bromo-4-[(1R,2R)-(2-hydroxy-1-methylpropyl)amino]pyrimidin-2-yl}amino)phenyl]-N-(ethoxycarbonyl)-S-ethyl sulfoximide]",170 nM,92 nM,43 nM,11 nM,120 nM,140 nM,1200 nM

# Now those with a lower IC50 [1], led by results:
IC50 [1],IC50 [2],IC50 (CDK1/CycB),IC50 (CDK2/CycE),IC50 [3],IC50 [4],Structure (SMILES),IC50 (MaTu-ADR)
100 nM,49 nM,5 nM,4 nM,110 nM,100 nM,"C[C@@H](Nc1nc(Nc2ccc(S(=N)(=O)CC3CC3)cc2)ncc1Br)C(C)(C)O (mixture of isomers) [Example 1.9, (RS)-S-[4-({5-bromo-4-[(R)-(2-hydroxy-1,2-dimethylpropyl)amino]pyrimidin-2-yl}amino)phenyl]-S-(cyclopropylmethyl)sulfoximide]",100 nM
100 nM,75 nM,,6 nM,< 100 nM,130 nM,"COc1cc(Nc2ncc(Br)c(N[C@H](C)C(C)(C)O)n2)ccc1S(C)(=N)=O (mixture of isomers) [Example 1.23, (RS)-S-[4-({5-bromo-4-[(R)-(2-hydroxy-1,2-dimethylpropyl)amino]pyrimidin-2-yl}amino)-2-methoxyphenyl]-S-methyl sulfoximide]",< 100 nM
120 nM,94 nM,96 nM,42 nM,120 nM,110 nM,"CCOC(=O)N=S(=O)(CC)c1ccc(Nc2ncc(Br)c(N[C@H](C)C(C)(C)O)n2)cc1 (mixture of isomers) [Example 1.35, (RS)-S-[4-({5-bromo-4-[(R)-(2-hydroxy-1,2-dimethylpropyl)amino]pyrimidin-2-yl}amino)phenyl]-N-(ethoxycarbonyl)-S-ethyl sulfoximide]",300 nM
20 nM,,22 nM,18 nM,20 nM,80 nM,"CCC(Sc1nc(Nc2ccc(S(C)(=N)=O)cc2)ncc1Br)C(C)O (racemic) [Example 3.6, (RS)-S-[4-({5-bromo-4-[(RS,RS)-(1-ethyl-2-hydroxypropyl)sulfanyl]pyrimidin-2-yl}amino)phenyl]-S-methyl sulfoximide]",20 nM
